Data from patent US12194039B2, “Methods of treating heart failure by administering omecamtiv mecarbil” (Cytokinetics, Inc., priority 2020, dated 2025).
Read-outs that look alike come from different tables or passages of the source.

Key:
[1] = system: patients with heart failure and reduced ejection fraction; format: in vivo
Experimental: The study was event-driven and was ended after approximately 1590 cardiovascular deaths. The overall type I error was 0.05 for 2-sided testing across primary and secondary endpoints with control for multiplicity testing. A single interim efficacy analysis was conducted after approximately two-thirds of the targeted number of cardiovascular deaths accrued with a one-sided alpha of 0.0005. Given the negligible impact of this interim on the final alpha, the full 0.05 was used in the final analysis consistent with the Haybittle-Peto approach. […] The mean differences in the KCCQ TSS change from baseline to Week 24 were estimated using a mixed model stratified by randomization setting (inpatient and outpatient) containing baseline TSS value, region, baseline eGFR, scheduled visit, treatment group, and the interaction of treatment group with scheduled visit. A joint omnibus F-test was used to test the treatment effect for the KCCQ TSS. An overall pooled estimate for the KCCQ TSS treatment difference to placebo were conducted using a likelihood based approach. The prespecified safety analyses included: serious adverse events; adverse events associated with discontinuation of study treatment; “adverse events of interest” i.e., ventricular arrhythmias requiring treatment and positively adjudicated major cardiac ischemic events (including myocardial infarction, hospitalization for unstable angina, coronary revascularization). […] All analyses were performed with the use of SAS software, version 9.4 (SAS Institute).
Excluding the discontinuations due to death, the study drug was stopped in 847 patients (20.6%) receiving omecamtiv mecarbil and 897 patients (21.9%) receiving placebo with 371 (9.0%) in the omecamtiv mecarbil group and 382 (9.3%) receiving placebo discontinuing due to an adverse event. Patients receiving omecamtiv mecarbil had no change in potassium or creatinine concentrations during the course of the trial compared to placebo. Patients receiving omecamtiv mecarbil had increased median concentrations of high sensitivity troponin-I from baseline of 0.004 ng/mL (lower limit of quantification, 0.010 ng/mL) compared to placebo at week 24. […] Ventricular arrhythmias were similar in patients receiving omecamtiv mecarbil compared to placebo (Table 3).
Continuous variables were summarized as means±standard deviations (SD) or medians and first and third quartiles (Q1, Q3), as appropriate. Categorical variables were summarized as counts and percentages. […] The change from baseline on NT-proBNP analysis included all participants who underwent randomization. The difference column is the exponentiated change from baseline on the log scale using a mixed model containing the log baseline value, region, baseline eGFR, scheduled visit, treatment group and interaction of treatment with scheduled visit.
Table 4 summarizes the adverse events reported in 1% or more of patients.

[2] = format: in vivo; settings: human, plasma, oral, at 6 weeks, read-out: Omecamtiv mecarbil PK value (plasma concentration), median
[3] = system: patients with or without AFF; format: in vivo; settings: for Troponin I increase: at 6 weeks; for Treatment effect on primary outcome by AFF at baseline: multivariable covariate-interaction model
[4] = system: plasma proteins; assay: Plasma protein binding; format: in vitro ADME
[5] = target: T1, MATE1 (Homo sapiens, UniProt Q96FL8); assay: In vitro inhibition by OM; format: in vitro ADME; settings: result in words
T1 sequence (Q96FL8 1-570): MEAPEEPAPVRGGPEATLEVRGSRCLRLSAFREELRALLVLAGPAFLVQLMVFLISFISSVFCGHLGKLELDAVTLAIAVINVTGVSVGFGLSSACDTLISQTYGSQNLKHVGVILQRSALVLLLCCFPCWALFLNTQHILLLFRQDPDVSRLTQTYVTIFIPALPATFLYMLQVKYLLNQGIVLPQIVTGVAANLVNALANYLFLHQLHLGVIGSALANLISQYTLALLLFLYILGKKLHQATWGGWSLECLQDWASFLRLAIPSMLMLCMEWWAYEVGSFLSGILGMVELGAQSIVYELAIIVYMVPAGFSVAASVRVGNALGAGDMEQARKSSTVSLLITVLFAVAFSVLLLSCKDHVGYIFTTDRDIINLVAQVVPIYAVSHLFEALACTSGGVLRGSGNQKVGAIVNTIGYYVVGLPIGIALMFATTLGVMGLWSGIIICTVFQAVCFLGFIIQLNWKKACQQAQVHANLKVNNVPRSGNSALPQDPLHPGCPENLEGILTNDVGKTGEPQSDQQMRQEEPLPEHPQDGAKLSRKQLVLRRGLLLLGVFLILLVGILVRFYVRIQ

[6] = treatment-emergent serious adverse event, preferred term, N = 4110

COC(=O)N1CCN(Cc2cccc(NC(=O)Nc3ccc(C)nc3)c2F)CC1 [omecamtiv mecarbil]
Acute kidney injury, % ([1]; human, in vivo): (3.1) % | Acute myocardial infarction, % ([1]; human, in vivo): (1.7) % | Adjudicated major cardiac ischemic events, no. ([1]; human, in vivo): 200 no. | Adjudicated major cardiac ischemic events, relative risk ([1]; human, in vivo): 1.06 | Angina pectoris, % ([1]; human, in vivo): (1.0) % | Angina unstable, % ([1]; human, in vivo): (1.5) % | Atrial fibrillation, % ([1]; human, in vivo): (2.3) % | Cardiac arrest, % ([1]; human, in vivo): (1.2) % | Cardiac failure acute, % ([1]; human, in vivo): (5.2) % | Cardiac failure chronic, % ([1]; human, in vivo): (3.8) % | Cardiac failure congestive, % ([1]; human, in vivo): (3.6) % | Cardiac failure, % ([1]; human, in vivo): (24.0) % | Cardiogenic shock, % ([1]; human, in vivo): (1.8) % | Chronic kidney disease, % ([1]; human, in vivo): (0.9) % | Chronic obstructive pulmonary disease, % ([1]; human, in vivo): (1.5) % | Coronary revascularization (adjudicated), % ([1]; human, in vivo): (2.8) % | Coronary revascularization (adjudicated), no. ([1]; human, in vivo): 115 no. | Drug discontinuation due to an adverse event, no. ([1]; human, in vivo): 371 no. | Drug discontinuation due to an adverse event, relative risk ([1]; human, in vivo): 0.97 | Hospitalized for unstable angina (adjudicated), % ([1]; human, in vivo): (0.6) % | Hospitalized for unstable angina (adjudicated), no. ([1]; human, in vivo): 25 no. | Hypotension, % ([1]; human, in vivo): (1.2) % | Myocardial infarction (adjudicated major cardiac ischemic event), no. ([1]; human, in vivo): 122 no. | Myocardial infarction, % ([1]; human, in vivo): (0.9) % | Pneumonia, % ([1]; human, in vivo): (4.2) % | Renal failure, % ([1]; human, in vivo): (0.6) % | Renal impairment, % ([1]; human, in vivo): (0.6) % | Respiratory tract infection, % ([1]; human, in vivo): (0.4) % | Sepsis, % ([1]; human, in vivo): (1.2) % | Septic shock, % ([1]; human, in vivo): (0.9) % | Serious adverse events (subjects reporting treatment-emergent serious adverse events), % ([1]; human, in vivo): (57.7) % | Serious adverse events (subjects reporting treatment-emergent serious adverse events), no. ([1]; human, in vivo): 2373 no. | Serious adverse events, relative risk ([1]; human, in vivo): 0.97 | Serious adverse ventricular arrhythmia requiring treatment, % ([1]; human, in vivo): (2.9) % | Serious adverse ventricular arrhythmia requiring treatment, no. ([1]; human, in vivo): 119 no. | Serious adverse ventricular arrhythmia requiring treatment, relative risk ([1]; human, in vivo): 0.93 | Stroke, % ([1]; human, in vivo): (1.8) % | Stroke, no. ([1]; human, in vivo): 76 no. | Stroke, relative risk ([1]; human, in vivo): 0.68 | Study drug stopped, % of patients ([1]; human, in vivo): 20.6% | Study drug stopped, no. of patients ([1]; human, in vivo): 847 no. | Syncope, % ([1]; human, in vivo): (1.0) % | Torsade de pointes/QT prolongation (narrow SMQ), % ([1]; human, in vivo): (4.3) % | Torsade de pointes/QT prolongation (narrow SMQ), no. ([1]; human, in vivo): 176 no. | Torsade de pointes/QT prolongation (narrow SMQ), relative risk ([1]; human, in vivo): 0.90 | Ventricular fibrillation, % ([1]; human, in vivo): (0.7) % | Ventricular tachyarrhythmias (narrow SMQ), % ([1]; human, in vivo): (7.1) % | Ventricular tachyarrhythmias (narrow SMQ), no. ([1]; human, in vivo): 290 no. | Ventricular tachyarrhythmias (narrow SMQ), relative risk ([1]; human, in vivo): 0.95 | Ventricular tachycardia, % ([1]; human, in vivo): (2.6) % | lschaemic stroke, % ([1]; human, in vivo): (0.9) % | Death, % [1, 6]: (1.6) % | Sudden cardiac death, % [1, 6]: (0.7) % | Sudden death, % [1, 6]: (1.3) % | concentration at 6 weeks ([2]; patients not taking digoxin): 280 ng/mL | concentration at 6 weeks ([2]; patients taking digoxin): 286 ng/mL | Troponin I increase ([3]; patients in AFF at baseline not taking digoxin): +45% | Troponin I increase ([3]; patients in AFF at baseline taking digoxin): +29% | Treatment effect on primary outcome by AFF at baseline ([3]; result in words): greater benefit observed in patients not in AFF | Treatment effect on primary outcome by AFF at baseline ([3]; result in words, listed as OM): patients without AFF deriving greater benefit | Serious adverse events, events ([3]; per 2974 patients, over the course of the study (FIG. 21E)): 55 events | Treatment effect modification by AFF according to digoxin use ([3]; result in words): significantly more pronounced in digoxin users than in non-users | Binding to plasma proteins [4]: 81.5% | Concentration dependence of protein binding ([4]; result in words): independent of drug concentration up to 4000 ng/mL | Inhibition of MATE1 [5]: inhibitor
